≈ marks a conversion by molar mass, not a printed value.
Tests used:
S. aureus NRRL B2747 [1] = test: MIC, agar incorporation method; format: cell-based, Staphylococcus aureus; settings: 24 hours; for MIC: Staphylococcus aureus, NRRLB2747, 32° C., read-out: Minimal Inhibitory Concentration
Experimental: (§1) The compounds of the present invention were tested for their ability to inhibit the growth of microorganisms by in vitro tests. Generally the in vitro tests involve growing representative microorganisms under conditions favorable to such growth and measuring the effectiveness of one or more compounds in inhibiting or destroying the growth of the microorganisms. The microorganisms used include representative bacteria, fungi and yeasts.
(§2) A representative selection of the test microorganisms were cultured in a nutrient broth, such as, for example, Eugon, commercially available from Difco Laboratories, Detroit, Michigan. Bacteria and Candida species were cultured for 24 hours at 32°-37° C. and fungi were cultured for approximately one week at 32° C. Inocula were prepared by suspending the growth or spores from a slant culture in sufficient sterile normal (0.9 percent) saline or Eugon broth, to yield cell or spore concentrations of 1,000,000 cells per milliliter. Anaerobic bacteria were cultured for 48-72 hours at 32°-37° C. in a thioglycollate containing medium, for example, Fluid Thioglycollate medium or NIH thioglycollate broth, commercially available from Difco Laboratories.
(§3) The compounds of the present invention were tested for activity against bacteria, yeasts and fungi by the agar incorporation method described below. MA 1347, 3-(dimethylaminomethyl)flavanone (disclosed in U.S. Pat. No. 3,753,985) was used as a comparative standard along with controls for each solvent system used.
(§4) A series of agar plates containing two-fold dilutions of each compound to be tested, ranging in concentration from 100 to 3.1 mcg/ml of agar medium was prepared. Aliquots of each concentration (100, 50, 25, 12.5, 6.2, and 3.1) prepared in N,N-dimethylformamide or 50 percent aqueous DMF were added to liquid Eugon agar at 48° C. (one part test solution to 100 parts agar). In some cases, tests with further dilutions to 0.125 mcg/ml were conducted. The agar medium, containing the 3-methylene flavanone or chromanone compound to be tested, was then dispensed into petri dishes and allowed to solidify. The solidified plates were kept overnight at room temperatures to dry the surface of the agar.
(§5) The agar plates were then inoculated with a drop of the standardized cell or spore suspension. Inoculated plates were incubated at 32° C. The inhibition end-point or minimum inhibitory concentration (MIC) shown in Table D represent the lowest concentration of test compound which inhibited the growth of the microorganism. Visual determination of growth inhibition was used. Bacteria and yeast end-points were determined after 24 hours incubation; molds, dermatophytes and anaerobes after 48-72 hours incubation. MIC values shown as ranges represent the extremes found in repeat assays. Virtually all such values were written plus or minus one dilution, the accepted variation of a two-fold dilution assay.

[2] = tested on: Bacteriodides fragilis ATCC 8482; test: MIC, agar incorporation method, anaerobic; format: cell-based; settings: 48 hours at 35° C., GasPak Anaerobic Jar, read-out: Minimal Inhibitory Concentration
Experimental: as §1, §2, §3, §4, §5
(§6) *Anaerobic: 48 hours incubation at 35° C. GasPak Anaerobic Jar

[3] = tested on: Propionobacterium acnes ATCC 6919; test: MIC, agar incorporation method, anaerobic; format: cell-based; settings: 48 hours at 35° C., GasPak Anaerobic Jar, read-out: Minimal Inhibitory Concentration
Experimental: as §1, §2, §3, §4, §5, §6

[4] = tested on: Clostridium sporogenes ATCC 11437; test: MIC, agar incorporation method, anaerobic; format: cell-based; settings: ATCC11437, 48 hours at 35° C., GasPak Anaerobic Jar, read-out: Minimal Inhibitory Concentration
Experimental: as §1, §2, §3, §4, §5, §6

S. aureus NRRL B2747 [5] = test: MIC, agar incorporation method, anaerobic; format: cell-based; settings: Staphylococcus aureus, NRRLB2747, 48 hours at 35° C., GasPak Anaerobic Jar, read-out: Minimal Inhibitory Concentration
Experimental: as §1, §2, §3, §4, §5, §6

[6] = tested on: Clostridium acetobutylicum ATCC 824; test: MIC, agar incorporation method, anaerobic; format: cell-based; settings: ATCC824, 48 h, 48 hours at 35° C., GasPak Anaerobic Jar, read-out: Minimal Inhibitory Concentration
Experimental: as §1, §2, §3, §4, §5, §6

T. rubrum ATCC 10218 = test: MIC, agar incorporation method; format: cell-based; settings: Trichophyton rubrum, ATCC10218; 32° C., 48-72 hours; read-out: Minimal Inhibitory Concentration
Experimental: as §1, §2, §3, §4, §5

[7] = tested on: Candida albicans ATCC 10231; test: MIC, agar incorporation method; format: cell-based; settings: ATCC10231, C. albicans ATCC 10231, 32° C., 24 hours, read-out: Minimal Inhibitory Concentration
Experimental: as §1, §2, §3, §4, §5

C. tropicalis NRRL Y1410 = test: MIC, agar incorporation method; format: cell-based; settings: Candida tropicalis, NRRLY1410; 32° C., 24 hours; read-out: Minimal Inhibitory Concentration
Experimental: as §1, §2, §3, §4, §5

[8] = tested on: Pseudomonas aeruginosa ATCC 14502; test: MIC, agar incorporation method; format: cell-based; settings: ATCC14502, 32° C., 24 hours, read-out: Minimal Inhibitory Concentration
Experimental: as §1, §2, §3, §4, §5

A. fumigatus NRRL 163 = test: MIC, agar incorporation method; format: cell-based; settings: 32° C., 48-72 hours; for MIC: Aspergillus fumigatus, NRRL163, NRRL 163, read-out: Minimal Inhibitory Concentration
Experimental: as §1, §2, §3, §4, §5

C. guillermondii VM 42 = test: MIC, agar incorporation method; format: cell-based; settings: 32° C., 24 hours; read-out: Minimal Inhibitory Concentration
Experimental: as §1, §2, §3, §4, §5

[9] = tested on: Streptococcus faecalis ATCC 10541; test: MIC, agar incorporation method; format: cell-based; settings: Enterococcus faecalis, ATCC10541; 32° C., 24 hours; read-out: Minimal Inhibitory Concentration
Experimental: as §1, §2, §3, §4, §5

[10] = tested on: Microsporum gypseum ATCC 14683; test: MIC, agar incorporation method; format: cell-based; settings: 48-72 hours; for MIC: Nannizzia gypsea, ATCC14683, 32° C., read-out: Minimal Inhibitory Concentration
Experimental: as §1, §2, §3, §4, §5

T. tonsurans ATCC 10217 = test: MIC, agar incorporation method; format: cell-based; settings: Trichophyton tonsurans, ATCC10217; 32° C., 48-72 hours; read-out: Minimal Inhibitory Concentration
Experimental: as §1, §2, §3, §4, §5

C. albicans NRRL Y-477 = test: MIC, agar incorporation method; format: cell-based; settings: Candida albicans, NRRLY477, 32° C., 24 hours, read-out: Minimal Inhibitory Concentration
Experimental: as §1, §2, §3, §4, §5

[11] = tested on: Trichophyton mentagrophytes ATCC 4807; test: MIC, agar incorporation method; format: cell-based; settings: ATCC4807, 32° C., 48-72 hours, read-out: Minimal Inhibitory Concentration
Experimental: as §1, §2, §3, §4, §5

C. krusei VM 29B = test: MIC, agar incorporation method; format: cell-based; settings: Pichia kudriavzevii, VM29B; 32° C., 24 hours; read-out: Minimal Inhibitory Concentration
Experimental: as §1, §2, §3, §4, §5

T. mentagrophytes TM-2 = test: MIC, agar incorporation method; format: cell-based; settings: Trichophyton mentagrophytes, TM2, 32° C., 48-72 hours, read-out: Minimal Inhibitory Concentration
Experimental: as §1, §2, §3, §4, §5

[12] = tested on: Sarcina subflava ATCC 7468; test: MIC, agar incorporation method; format: cell-based; settings: ATCC7468, 32° C., 24 hours, read-out: Minimal Inhibitory Concentration
Experimental: as §1, §2, §3, §4, §5

[13] = tested on: Aspergillus niger ATCC 16404; test: MIC, agar incorporation method; format: cell-based; settings: ATCC16404, 32° C., 48-72 hours, read-out: Minimal Inhibitory Concentration
Experimental: as §1, §2, §3, §4, §5

[14] = tested on: Staphylococcus aureus ATCC 6538; test: MIC, agar incorporation method; format: cell-based; settings: S. aureus ATCC 6538, 32° C., 24 hours; for MIC: Staphylococcus aureus, ATCC6538, read-out: Minimal Inhibitory Concentration
Experimental: as §1, §2, §3, §4, §5

T. mentagrophytes CDC = test: MIC, agar incorporation method; format: cell-based; settings: Trichophyton mentagrophytes, 32° C., 48-72 hours, read-out: Minimal Inhibitory Concentration
Experimental: as §1, §2, §3, §4, §5

[15] = tested on: Proteus vulgaris NRRL B123; test: MIC, agar incorporation method; format: cell-based; settings: NRRLB123, 32° C., 24 hours, read-out: Minimal Inhibitory Concentration
Experimental: as §1, §2, §3, §4, §5

[16] = tested on: Escherichia coli ATCC 8739; test: MIC, agar incorporation method; format: cell-based; settings: ATCC8739, 32° C., 24 hours, read-out: Minimal Inhibitory Concentration
Experimental: as §1, §2, §3, §4, §5

A. fumigatus NRRL 165 = test: MIC, agar incorporation method; format: cell-based; settings: Aspergillus fumigatus, NRRL165, 32° C., 48-72 hours, read-out: Minimal Inhibitory Concentration
Experimental: as §1, §2, §3, §4, §5

Compound | MIC (S. aureus NRRL B2747 [1]) | MIC [3] | MIC [6] | MIC (T. rubrum ATCC 10218) | MIC [7] | MIC (C. tropicalis NRRL Y1410) | MIC [8] | MIC (A. fumigatus NRRL 163) | MIC (C. guillermondii VM 42) | MIC [9] | MIC (C. albicans NRRL Y-477) | MIC [11] | MIC (C. krusei VM 29B) | MIC (T. mentagrophytes TM-2) | MIC [12] | MIC [13] | MIC [14] | MIC (T. mentagrophytes CDC) | MIC [15] | MIC [16] | further results
CN(C)CC1C(=O)c2ccccc2OC1c1ccccc1 (stereo not shown) [MA 1347, 3-(dimethylaminomethyl)flavanone, reference compound] | 6.2 to 12.5 µg/mL (≈ 22 to 44.4 µM) | 12.5 µg/mL (≈ 44.4 µM) | ≤ 100 µg/mL | 3.1 to 12.5 µg/mL (≈ 11 to 44.4 µM) | 25 to 50 µg/mL (≈ 88.9 to 178 µM) | 50 to 100 µg/mL (≈ 178 to 355 µM) | > 100 µg/mL | 6.2 to 25 µg/mL (≈ 22 to 88.9 µM) | 50 to 100 µg/mL (≈ 178 to 355 µM) | 50 µg/mL (≈ 178 µM) | 25 µg/mL (≈ 88.9 µM) | 6.2 to 12.5 µg/mL (≈ 22 to 44.4 µM) | 12.5 to 25 µg/mL (≈ 44.4 to 88.9 µM) | 6.2 to 12.5 µg/mL (≈ 22 to 44.4 µM) | 12.5 µg/mL (≈ 44.4 µM) | 50 µg/mL (≈ 178 µM) | 6.2 to 12.5 µg/mL (≈ 22 to 44.4 µM) | 6.2 to 12.5 µg/mL (≈ 22 to 44.4 µM) | > 100 µg/mL | > 100 µg/mL | Minimal Inhibitory Concentration (S. aureus NRRL B2747 [1]; 32° C.): 6.2 to 12.5 µg/mL; MIC [2]: 3.1 µg/mL (≈ 11 µM); MIC [4]: 6.2 µg/mL (≈ 22 µM); MIC (S. aureus NRRL B2747 [5]): 25 µg/mL (≈ 88.9 µM); Minimal Inhibitory Concentration (A. fumigatus NRRL 163; NRRL 163): 5.2 to 25 µg/mL; Minimal Inhibitory Concentration ([10]; 32° C.): 6.12 to 12.5 µg/mL; MIC [10]: 6.2 to 12.5 µg/mL (≈ 22 to 44.4 µM); MIC (T. tonsurans ATCC 10217): 6.2 µg/mL (≈ 22 µM); Minimal Inhibitory Concentration [14]: 6.2 to 12.5 µg/mL
C=C1C(=O)c2ccccc2OC1(c1ccccc1)c1ccccc1 [Ex. 20, 3-methylene-2-phenyl flavanone] | 0.25 to 0.5 µg/mL (≈ 0.8 to 1.6 µM) | 0.78 to 3.1 µg/mL (≈ 2.5 to 9.92 µM) | 1 µg/mL (≈ 3.2 µM) | > 100 µg/mL | > 100 µg/mL | > 100 µg/mL | > 100 µg/mL | > 100 µg/mL | > 100 µg/mL | 0.78 to 1 µg/mL (≈ 2.5 to 3.2 µM) | > 100 µg/mL | > 100 µg/mL | > 100 µg/mL | > 100 µg/mL | 1 µg/mL (≈ 3.2 µM) | > 100 µg/mL | 0.5 µg/mL (≈ 1.6 µM) | > 100 µg/mL | > 100 µg/mL | > 100 µg/mL | MIC [2]: 0.125 µg/mL (≈ 0.4 µM); MIC [4]: 0.5 µg/mL (≈ 1.6 µM); MIC (S. aureus NRRL B2747 [5]): 0.25 to 1 µg/mL (≈ 0.8 to 3.2 µM); MIC (T. tonsurans ATCC 10217): > 100 µg/mL; MIC (A. fumigatus NRRL 165): > 100 µg/mL
C=C1C(=O)c2ccccc2OC1c1ccc(C)cc1 (stereo not shown) [Ex. 13, 4'-methyl-3-methylene flavanone] | 6.2 µg/mL (≈ 24.8 µM) | ≤ 100 µg/mL | ≤ 100 µg/mL | ≤ 3.1 µg/mL | 25 µg/mL (≈ 99.9 µM) | 50 µg/mL (≈ 200 µM) | > 100 µg/mL | 12.5 µg/mL (≈ 49.9 µM) | 50 µg/mL (≈ 200 µM) | 50 µg/mL (≈ 200 µM) | 25 µg/mL (≈ 99.9 µM) | 6.2 µg/mL (≈ 24.8 µM) | 25 µg/mL (≈ 99.9 µM) | 6.2 µg/mL (≈ 24.8 µM) | 12.5 µg/mL (≈ 49.9 µM) | 50 µg/mL (≈ 200 µM) | 6.2 µg/mL (≈ 24.8 µM) | 6.2 µg/mL (≈ 24.8 µM) | > 100 µg/mL | > 100 µg/mL | MIC [10]: 6.2 µg/mL (≈ 24.8 µM); MIC (A. fumigatus NRRL 165): 50 µg/mL (≈ 200 µM)
